Source: patent publication US8604061B2, “2-aminooxazolines as TAAR1 ligands” (Hoffmann-La Roche Inc., priority 2007, dated 2013)
pKi: −log10 of the molar value. Like-named read-outs stand apart in the source and are kept apart here.

Target: TAAR1 (Mus musculus, UniProt Q923Y8)
Assay: TAAR1 radioligand binding, membranes of stably transfected HEK293 cells (mouse)
Details: for Ki: mouse/rat, cell not marked 'rat', radioligand [3H]-rac-2-(1,2,3,4-tetrahydro-1-naphthyl)-2-imidazoline, 4° C., read-out: Ki (μM) mouse/rat
Method in brief: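 Competition binding on membranes from HEK293 cells stably expressing the TAAR1 species ortholog, in HEPES-NaOH pH 7.0 with 10 mM MgCl2 and 2 mM CaCl2, 30 min at 4° C with [3H]-rac-2-(1,2,3,4-tetrahydro-1-naphthyl)-2-imidazoline. Competitors 10 pM–30 μM, duplicates; non-specific binding with 10 μM unlabelled ligand; filtration and scintillation counting.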

NC1=NC(c2cccc(Cl)c2F)CO1 (racemic) [Example 18, (RS)-4-(3-Chloro-2-fluoro-phenyl)-4,5-dihydro-oxazol-2-ylamine]
pKi: 8.66

NC1=N[C@@H](CCc2ccccc2Cl)CO1 [Example 267, (S)-4-[2-(2-Chloro-phenyl)-ethyl]-4,5-dihydro-oxazol-2-ylamine]
Ki: 0.0011 µM

NC1=N[C@@H](c2cccc(Br)c2)CO1 [Example 198, (+)-(S)-4-(3-Bromo-phenyl)-4,5-dihydro-oxazol-2-ylamine]
Ki: 0.002 µM

NC1=N[C@@H](CCc2ccc(F)c(C(F)(F)F)c2)CO1 [Example 133, (S)-4-[2-(4-Fluoro-3-trifluoromethyl-phenyl)-ethyl]-4,5-dihydro-oxazol-2-ylamine]
Ki: 0.0022 µM

Cc1ccc([C@@]2(C)COC(N)=N2)cc1 [Example 161, (S)-4-Methyl-4-p-tolyl-4,5-dihydro-oxazol-2-ylamine]
Ki: 0.0062 µM

CCC(C[C@H]1COC(N)=N1)c1ccccc1 (stereo partly drawn) [Example 163, (S)-4-(2-Phenyl-butyl)-4,5-dihydro-oxazol-2-ylamine]
Ki: 0.0037 µM

C[C@]1(c2ccc(Br)cc2)COC(N)=N1 [Example 231, (S)-4-(4-Bromo-phenyl)-4-methyl-4,5-dihydro-oxazol-2-ylamine]
Ki: 0.0025 µM

NC1=N[C@@H](CCc2ccc(C(F)(F)F)c(F)c2)CO1 [Example 137, (S)-4-[2-(3-Fluoro-4-trifluoromethyl-phenyl)-ethyl]-4,5-dihydro-oxazol-2-ylamine]
Ki: 0.0025 µM

CC1(CCc2ccccc2)COC(N)=N1 (racemic) [Example 78, (RS)-4-Methyl-4-phenethyl-4,5-dihydro-oxazol-2-ylamine]
Ki: 0.0064 µM

NC1=N[C@@H](CCc2cccc(F)c2)CO1 [Example 112, (S)-4-[2-(3-Fluoro-phenyl)-ethyl]-4,5-dihydro-oxazol-2-ylamine]
Ki: 0.0012 µM

Cc1cc(F)ccc1C1COC(N)=N1 (racemic) [Example 337, (RS)-4-(4-Fluoro-2-methyl-phenyl)-4,5-dihydro-oxazol-2-ylamine]
pKi: 8.47

Cc1cc(CC[C@H]2COC(N)=N2)ccn1 [Example 220, (S)-4-[2-(2-Methyl-pyridin-4-yl)-ethyl]-4,5-dihydro-oxazol-2-ylamine]
Ki: 0.0084 µM

NC1=NC(c2ccc(-c3ccccc3)cc2)CO1 (racemic) [Example 10, (RS)-4-Biphenyl-4-yl-4,5-dihydro-oxazol-2-ylamine]
pKi: 8.60

NC1=N[C@@H](CSc2ccc(Cl)cc2)CO1 [Example 370, (R)-4-(4-Chloro-phenylsulfanylmethyl)-4,5-dihydro-oxazol-2-ylamine]
Ki: 0.0037 µM

COc1cc(CC[C@H]2COC(N)=N2)ccc1F [Example 86, (S)-4-[2-(4-Fluoro-3-methoxy-phenyl)-ethyl]-4,5-dihydro-oxazol-2-ylamine]
Ki: 0.0008 µM

CCC(C[C@H]1COC(N)=N1)c1cc(F)cc(F)c1 (stereo partly drawn) [Example 203, (S)-4-[2-(3,5-Difluoro-phenyl)-butyl]-4,5-dihydro-oxazol-2-ylamine]
Ki: 0.0039 µM

C[C@H](C[C@H]1COC(N)=N1)c1ccccc1 [82 (S, R), (S)-4-((R)-2-Phenyl-propyl)-4,5-dihydro-oxazol-2-ylamine]
Ki: 0.0016 µM

NC1=N[C@@H](CCc2ccc(Cl)cc2F)CO1 [Example 132, (S)-4-[2-(4-Chloro-2-fluoro-phenyl)-ethyl]-4,5-dihydro-oxazol-2-ylamine]
Ki: 0.0007 µM

NC1=N[C@@H](COc2ccc(F)cc2)CO1 [Example 213, (S)-4-(4-Fluoro-phenoxymethyl)-4,5-dihydro-oxazol-2-ylamine]
Ki: 0.003 µM

NC1=N[C@@H](c2cc(F)cc(F)c2F)CO1 [Example 118, (S)-4-(2,3,5-Trifluoro-phenyl)-4,5-dihydro-oxazol-2-ylamine]
Ki: 0.003 µM

NC1=N[C@@H](CCc2ccc(F)cc2F)CO1 [Example 88]
Ki: 0.001 µM

COc1ccc(C2COC(N)=N2)c(C(F)(F)F)c1 (racemic) [Example 229, (RS)-4-(4-Methoxy-2-trifluoromethyl-phenyl)-4,5-dihydro-oxazol-2-ylamine]
pKi: > 5.52

NC1=N[C@@H](Cc2cccc(C(F)(F)F)c2)CO1 [Example 63, (S)-4-(3-Trifluoromethyl-benzyl)-4,5-dihydro-oxazol-2-ylamine]
Ki: 0.0086 µM

NC1=N[C@@H](CCc2ccc(OC(F)(F)F)c(F)c2)CO1 [Example 145, (S)-4-[2-(3-Fluoro-4-trifluoromethoxy-phenyl)-ethyl]-4,5-dihydro-oxazol-2-ylamine]
Ki: 0.0026 µM

NC1=NC(c2ccc(Cl)cc2C(F)(F)F)CO1 (racemic) [Example 226, (RS)-4-(4-Chloro-2-trifluoromethyl-phenyl)-4,5-dihydro-oxazol-2-ylamine]
pKi: 8.27

NC1=N[C@@H](COc2ccc(F)cc2F)CO1 [Example 353, (S)-4-(2,4-Difluoro-phenoxymethyl)-4,5-dihydro-oxazol-2-ylamine]
Ki: 0.0014 µM

CC1(c2cc(Cl)ccc2Cl)COC(N)=N1 (racemic) [Example 299, (RS)-4-(2,5-Dichloro-phenyl)-4-methyl-4,5-dihydro-oxazol-2-ylamine]
pKi: 8.38

NC1=NC(c2ccc(Br)c(Cl)c2)CO1 (racemic) [Example 326, (RS)-4-(4-Bromo-3-chloro-phenyl)-4,5-dihydro-oxazol-2-ylamine]
pKi: 9.00

NC1=N[C@@H](c2ccc(Br)cc2)CO1 [Example 105, (S)-4-(4-Bromo-phenyl)-4,5-dihydro-oxazol-2-ylamine]
Ki: 0.0007 µM

NC1=N[C@@H](c2ccc(F)c(Br)c2F)CO1 [Example 29 (S), (S)-4-(3-Bromo-2,4-difluoro-phenyl)-4,5-dihydro-oxazol-2-ylamine]
Ki: 0.0054 µM

NC1=N[C@@H](c2cc(Cl)ccc2Cl)CO1 [Example 298, (+)-(S)-4-(2,5-Dichloro-phenyl)-4,5-dihydro-oxazol-2-ylamine]
Ki: 0.0004 µM

CC[C@H](C[C@H]1COC(N)=N1)c1ccccc1 [Example 293, (S)-4-((R)-2-Phenyl-butyl)-4,5-dihydro-oxazol-2-ylamine]
Ki: 0.0062 µM

NC1=N[C@@H](c2ccc(Cl)cc2C2CC2)CO1 [Example 369, (+)-(S)-4-(4-Chloro-2-cyclopropyl-phenyl)-4,5-dihydro-oxazol-2-ylamine]
Ki: 0.0009 µM

NC1=N[C@@H](c2cccc(Cl)c2F)CO1 [Example 109, (S)-4-(3-Chloro-2-fluoro-phenyl)-4,5-dihydro-oxazol-2-ylamine]
Ki: 0.0014 µM

NC1=NC(c2ccc(Br)cc2C(F)(F)F)CO1 (racemic) [Example 302, (RS)-4-(4-Bromo-2-trifluoromethyl-phenyl)-4,5-dihydro-oxazol-2-ylamine]
pKi: 8.77

Cc1ccc(Cl)cc1C1COC(N)=N1 (racemic) [Example 272, (RS)-4-(5-Chloro-2-methyl-phenyl)-4,5-dihydro-oxazol-2-ylamine]
pKi: 8.89

NC1=N[C@@H](c2ccc(F)c(Cl)c2)CO1 [Example 172, (S)-4-(3-chloro-4-fluoro-phenyl)-4,5-dihydro-oxazol-2-ylamine]
Ki: 0.0019 µM

Cc1ccc(C2COC(N)=N2)cc1Cl (racemic) [Example 351, (RS)-4-(3-Chloro-4-methyl-phenyl)-4,5-dihydro-oxazol-2-ylamine]
pKi: 8.62

NC1=N[C@@H](COCc2ccccc2)CO1 [Example 350, (S)-4-Benzyloxymethyl-4,5-dihydro-oxazol-2-ylamine]
Ki: 0.0064 µM

C[C@]1(CCc2cccc(Cl)c2)COC(N)=N1 [Example 246, (S)-4-[2-(3-Chloro-phenyl)-ethyl]-4-methyl-4,5-dihydro-oxazol-2-ylamine]
Ki: 0.0055 µM
